In PubChem BioAssay AID1963846 (Molecular Pharmacology Branch, DTP, NCI, 2024):
Blank lines part the entries; values can stand above or below the compound they belong to.

Tested on: 454973-116-R2-J3-PDC complex spheroid viability
Assay: Anticancer human tumor 454973-116-R2-J3-PDC patient-derived pancreatic carcinoma cell line growth inhibition [POLQ]
Conditions: for viability, T/C: stronger effect = lower value
Summary of the method: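 Patient-derived tumour cells were co-cultured with HUVEC and mesenchymal stem cells as multicellular spheroids at 37 °C. They were treated with POLQ inhibitors (novobiocin, ART-558, RP6685) alone or combined with other agents. Top concentrations were at or near clinical Cmax (otherwise 10 microM; SN-38 at 1 microM), decreasing in half-log steps.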

[1] = curve of first compound, second compound 0.0316 µM
[2] = curve of first compound, second compound 0.1 µM
[3] = curve of first compound, second compound 0.316 µM
[4] = curve of first compound, second compound 1 µM
[5] = curve of first compound, second compound 3.16 µM
[6] = curve of first compound, second compound 10 µM
[7] = second compound 0.0316 µM, first compound 0.0316 µM
[8] = second compound 0.0316 µM, first compound 0.1 µM
[9] = second compound 0.0316 µM, first compound 0.316 µM
[10] = second compound 0.0316 µM, first compound 1 µM
[11] = second compound 0.0316 µM, first compound 3.16 µM
[12] = second compound 0.0316 µM, first compound 10 µM
[13] = second compound 0.1 µM, first compound 0.0316 µM
[14] = second compound 0.1 µM, first compound 0.1 µM
[15] = second compound 0.1 µM, first compound 0.316 µM
[16] = second compound 0.1 µM, first compound 1 µM
[17] = second compound 0.1 µM, first compound 3.16 µM
[18] = second compound 0.1 µM, first compound 10 µM
[19] = second compound 0.316 µM, first compound 0.0316 µM
[20] = second compound 0.316 µM, first compound 0.1 µM
[21] = second compound 0.316 µM, first compound 0.316 µM
[22] = second compound 0.316 µM, first compound 1 µM
[23] = second compound 0.316 µM, first compound 3.16 µM
[24] = second compound 0.316 µM, first compound 10 µM
[25] = second compound 1 µM, first compound 0.0316 µM
[26] = second compound 1 µM, first compound 0.1 µM
[27] = second compound 1 µM, first compound 0.316 µM
[28] = second compound 1 µM, first compound 1 µM
[29] = second compound 1 µM, first compound 3.16 µM
[30] = second compound 1 µM, first compound 10 µM
[31] = second compound 3.16 µM, first compound 0.0316 µM
[32] = second compound 3.16 µM, first compound 0.1 µM
[33] = second compound 3.16 µM, first compound 0.316 µM
[34] = second compound 3.16 µM, first compound 1 µM
[35] = second compound 3.16 µM, first compound 3.16 µM
[36] = second compound 3.16 µM, first compound 10 µM
[37] = second compound 10 µM, first compound 0.0316 µM
[38] = second compound 10 µM, first compound 0.1 µM
[39] = second compound 10 µM, first compound 0.316 µM
[40] = second compound 10 µM, first compound 1 µM
[41] = second compound 10 µM, first compound 3.16 µM
[42] = second compound 10 µM, first compound 10 µM
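Note: spheroids exposed to drugs for seven days before measurement.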
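Throughout, for viability, T/C: percent viability relative to DMSO vehicle control wells taken as 100%.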

IC50 (compound alone, run of 11/06/2023): > 10 µM
Compound: Nc1ccc(C#CCN(C(=O)Cc2ncc(C(F)(F)F)cc2C(F)(F)F)c2ccc(F)cc2)nn1
viability, T/C (compound 0.0316 µM): 109% [middle of 13 runs]
viability, T/C (compound 0.1 µM): 106% [middle of 13 runs]
viability, T/C (compound 0.316 µM): 107% [middle of 13 runs]
viability, T/C (compound 1 µM): 104% [middle of 13 runs]
viability, T/C (compound 3.16 µM): 105% [middle of 13 runs]
viability, T/C (compound 10 µM): 112% [middle of 13 runs]

Compound: O=C(Nc1ccc(O)c(NS(=O)(=O)c2ccc(F)cc2)c1)c1ccc(-c2ccccc2)cc1 + Nc1ccc(C#CCN(C(=O)Cc2ncc(C(F)(F)F)cc2C(F)(F)F)c2ccc(F)cc2)nn1
IC50 [1]: > 10 µM
IC50 [2]: > 10 µM
IC50 [3]: > 10 µM
IC50 [4]: > 10 µM
IC50 [5]: > 10 µM
IC50 [6]: > 10 µM
viability, T/C [7]: 109%
viability, T/C [8]: 107%
viability, T/C [9]: 108%
viability, T/C [10]: 114%
viability, T/C [11]: 108%
viability, T/C [12]: 86.5%
viability, T/C [13]: 101%
viability, T/C [14]: 107%
viability, T/C [15]: 110%
viability, T/C [16]: 103%
viability, T/C [17]: 103%
viability, T/C [18]: 89.9%
viability, T/C [19]: 105%
viability, T/C [20]: 104%
viability, T/C [21]: 109%
viability, T/C [22]: 107%
viability, T/C [23]: 110%
viability, T/C [24]: 89.2%
viability, T/C [25]: 110%
viability, T/C [26]: 108%
viability, T/C [27]: 111%
viability, T/C [28]: 112%
viability, T/C [29]: 109%
viability, T/C [30]: 80.9%
viability, T/C [31]: 107%
viability, T/C [32]: 106%
viability, T/C [33]: 106%
viability, T/C [34]: 120%
viability, T/C [35]: 123%
viability, T/C [36]: 86.8%
viability, T/C [37]: 123%
viability, T/C [38]: 112%
viability, T/C [39]: 112%
viability, T/C [40]: 120%
viability, T/C [41]: 109%
viability, T/C [42]: 85.5%

Compound: Nc1ccn(C2OC(CO)C(O)C2(F)F)c(=O)n1 (stereo unspecified) + COC1C(OC(N)=O)C(O)C(Oc2ccc3c(O)c(NC(=O)c4ccc(O)c(CC=C(C)C)c4)c(=O)oc3c2C)OC1(C)C
IC50 [1]: < 0.0316 µM
IC50 [2]: < 0.0316 µM
IC50 [3]: < 0.0316 µM
IC50 [4]: < 0.0316 µM
IC50 [5]: < 0.0316 µM
IC50 [6]: < 0.0316 µM
viability, T/C [7]: 14.4%
viability, T/C [8]: 8.27%
viability, T/C [9]: 11.6%
viability, T/C [10]: 11.3%
viability, T/C [11]: 11.7%
viability, T/C [12]: 12.9%
viability, T/C [13]: 12.6%
viability, T/C [14]: 11.2%
viability, T/C [15]: 10.2%
viability, T/C [16]: 11.4%
viability, T/C [17]: 11.2%
viability, T/C [18]: 10.5%
viability, T/C [19]: 10.3%
viability, T/C [20]: 9.75%
viability, T/C [21]: 10.9%
viability, T/C [22]: 11%
viability, T/C [23]: 15.1%
viability, T/C [24]: 10.2%
viability, T/C [25]: 12%
viability, T/C [26]: 11.9%
viability, T/C [27]: 13.1%
viability, T/C [28]: 13.4%
viability, T/C [29]: 11.2%
viability, T/C [30]: 14.5%
viability, T/C [31]: 12.2%
viability, T/C [32]: 15.2%
viability, T/C [33]: 11.4%
viability, T/C [34]: 10.9%
viability, T/C [35]: 11%
viability, T/C [36]: 11.1%
viability, T/C [37]: 13.2%
viability, T/C [38]: 10.8%
viability, T/C [39]: 12.5%
viability, T/C [40]: 12.4%
viability, T/C [41]: 11.9%
viability, T/C [42]: 12%
